Reference: patent US9409908B2 (priority 2012, dated 2016)
pKi: −log10 of the molar value. Counter-ions that a name gives are not always drawn. Like-named read-outs stand apart in the source and are kept apart here.

Legend:
[1] = from C=CC[C@H](NC(=O)OC(C)(C)C)c1cc(-c2ccncc2NC(=O)[C@H](C)C=C)ccn1; rcm bond; 12-membered ring; Grubbs II/pTsOH; CH2Cl2; 5.2 mM; 40.0 °C
[2] = rcm bond, Grubbs II, 40.0 °C
[3] = molecular target: purified human Factor XIa (Homo sapiens (Human), UniProt P03951); assay: biochemical; assay type: biochemical; conditions: read-out: Factor XIa Ki
Sequence of purified human Factor XIa (P03951 whole entry, looked up): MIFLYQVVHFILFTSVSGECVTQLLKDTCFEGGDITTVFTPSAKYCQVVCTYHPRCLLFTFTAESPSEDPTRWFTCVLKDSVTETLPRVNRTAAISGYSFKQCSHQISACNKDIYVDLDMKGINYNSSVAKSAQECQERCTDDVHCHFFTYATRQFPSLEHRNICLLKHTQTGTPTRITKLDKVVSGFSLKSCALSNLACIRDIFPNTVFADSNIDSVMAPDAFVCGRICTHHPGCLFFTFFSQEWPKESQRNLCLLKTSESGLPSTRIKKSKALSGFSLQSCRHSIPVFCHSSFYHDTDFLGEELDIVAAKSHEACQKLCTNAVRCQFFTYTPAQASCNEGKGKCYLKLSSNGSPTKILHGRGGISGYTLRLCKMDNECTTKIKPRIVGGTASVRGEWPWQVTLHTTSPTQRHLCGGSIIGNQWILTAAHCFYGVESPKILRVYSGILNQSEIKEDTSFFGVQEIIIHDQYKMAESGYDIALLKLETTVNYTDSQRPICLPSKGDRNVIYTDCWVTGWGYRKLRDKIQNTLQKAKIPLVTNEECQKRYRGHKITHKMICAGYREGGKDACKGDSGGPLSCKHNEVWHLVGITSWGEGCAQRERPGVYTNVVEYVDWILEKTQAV
Sequence of purified human Factor XIa (P03951 whole entry partner, looked up): as the sequence (P03951 whole entry, looked up) above

[4] = molecular target: purified human plasma kallikrein (Homo sapiens (Human), UniProt P03952); assay: biochemical; assay type: biochemical; conditions: read-out: Plasma Kallikrein Ki
Sequence of purified human plasma kallikrein (P03952 whole entry, looked up): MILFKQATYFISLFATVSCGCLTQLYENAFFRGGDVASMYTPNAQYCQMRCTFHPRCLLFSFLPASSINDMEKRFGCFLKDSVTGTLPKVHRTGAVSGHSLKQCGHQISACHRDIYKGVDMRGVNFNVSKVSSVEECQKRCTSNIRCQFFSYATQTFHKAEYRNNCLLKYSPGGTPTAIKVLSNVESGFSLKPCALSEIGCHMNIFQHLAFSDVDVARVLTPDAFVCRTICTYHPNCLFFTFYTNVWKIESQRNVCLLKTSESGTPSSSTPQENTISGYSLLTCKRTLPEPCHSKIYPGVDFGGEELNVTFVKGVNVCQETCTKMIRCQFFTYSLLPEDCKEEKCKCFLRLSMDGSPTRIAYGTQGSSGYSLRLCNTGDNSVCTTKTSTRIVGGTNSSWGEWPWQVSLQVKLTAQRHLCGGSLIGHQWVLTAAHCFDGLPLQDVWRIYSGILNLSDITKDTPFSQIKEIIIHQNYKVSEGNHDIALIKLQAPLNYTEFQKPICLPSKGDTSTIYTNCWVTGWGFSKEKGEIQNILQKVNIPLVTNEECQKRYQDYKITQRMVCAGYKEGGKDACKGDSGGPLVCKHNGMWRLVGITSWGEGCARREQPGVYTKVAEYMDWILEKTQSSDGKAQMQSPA
Sequence of purified human plasma kallikrein (P03952 whole entry partner, looked up): as the sequence (P03952 whole entry, looked up) above

Row | SMILES | pKi [3] | pKi [4] | further results
1 | C[C@@H]1/C=C/C[C@H](NC(=O)OC(C)(C)C)c2cc(ccn2)-c2ccncc2NC1=O | – | – | ring closure, yield after HPLC [1]: 7.3%; ring closure, yield of all isomers ([2]; from C=CC[C@H](NC(=O)OC(C)(C)C)c1cc(-c2ccncc2NC(=O)[C@H](C)C=C)ccn1, CH2Cl2, 5.06 mM, 24.0 h): 7.3%
2 | COC(=O)Nc1ccc2c(c1)C(=O)NC/C=C/C[C@H](NC(=O)OC(C)(C)C)c1cc-2ccn1 | – | – | ring closure, yield of all isomers ([2]; from C=CCNC(=O)c1cc(NC(=O)OC)ccc1-c1ccnc([C@H](CC=C)NC(=O)OC(C)(C)C)c1, DCM, […], 3.0 h): 39.4%
3 | C[C@@H]1/C=C/C[C@H](NC(=O)OC(C)(C)C)c2cc(ccn2)-c2ccccc2NC1=O | – | – | ring closure, yield of all isomers ([2]; from C=CC[C@H](NC(=O)OC(C)(C)C)c1cc(-c2ccccc2NC(=O)[C@H](C)C=C)ccn1, dichloromethane, 11.8 mM, 4.5 h): 78%
4 | COC(=O)Nc1ccc2c(c1)NC(=O)[C@H](C)/C=C/C[C@H](NC(=O)OC(C)(C)C)c1nc-2cn1COCC[Si](C)(C)C | – | – | ring closure, yield of all isomers ([2]; from C=CC[C@H](NC(=O)OC(C)(C)C)c1nc(-c2ccc(NC(=O)OC)cc2NC(=O)[C@H](C)C=C)cn1COCC[Si](C)(C)C, dichloromethane, 9.73 mM, 21.5 h): 74%
5 | C[C@@H]1CCC[C@H](N2CCC(c3c(F)ccc(Cl)c3F)=CC2=O)c2cc(ccn2)-c2ccc(Nc3ncccn3)cc2NC1=O [Example 16, (10R,14S)-14-[4-(3-Chloro-2,6-difluorophenyl)-6-oxo-1,2,3,6-tetrahydropyridin-1-yl]-10-methyl-5-[(pyrimidin-2-yl)amino]-8,16-diazatricyclo[13.3.1.0^2,7]nonadeca-1(19),2(7),3,5,15,17-hexaen-9-one, 2 TFA salt] | 8.94 | 9.00 | –
6 | CC(C)[C@H]1CCC[C@H](N2CCC(c3c(F)ccc(Cl)c3F)=CC2=O)c2cc(ccn2)-c2ccccc2NC1=O [Example 96, (10R,14S)-14-[4-(3-chloro-2,6-difluorophenyl)-6-oxo-1,2,3,6-tetrahydropyridin-1-yl]-10-(propan-2-yl)-8,16-diazatricyclo[13.3.1.0^2,7]nonadeca-1(18),2,4,6,15(19),16-hexaen-9-one, TFA salt] | < 6.37 | 5.71 | –
7 | COC(=O)Nc1ccc2c(c1)NC(=O)[C@H](C)CCC[C@H](N1CCC(C3CCCCC3)=CC1=O)c1cc-2ccn1 [Example 98, Methyl N-[(10R,14S)-14-(4-cyclohexyl-6-oxo-1,2,3,6-tetrahydropyridin-1-yl)-10-methyl-9-oxo-8,16-diazatricyclo[13.3.1.0^2,7]nonadeca-1(19),2,4,6,15,17-hexaen-5-yl]carbamate, TFA salt] | 7.52 | 7.44 | –
8 | COC(=O)Nc1ccc2c(c1)NC(=O)[C@H](C)CCC[C@H](N1CCC(c3nccc(Cl)c3F)=CC1=O)c1cc-2cc(OC)n1 [Example 5, Methyl N-[(10R,14S)-14-[4-(4-chloro-3-fluoropyridin-2-yl)-6-oxo-1,2,3,6-tetrahydropyridin-1-yl]-17-methoxy-10-methyl-9-oxo-8,16-diazatricyclo[13.3.1.0^2,7]nonadeca-1(18),2,4,6,15(19),16-hexaen-5-yl]carbamate, TFA salt] | 8.70 | 8.52 | –
9 | COC(=O)Nc1ccc2c(c1)NC(=O)[C@H](C)CCC[C@H](N1CCC(c3ccc(OC)cc3)=CC1=O)c1cc-2ccn1 [Example 117, Methyl N-[(10R,14S)-14-[4-(4-methoxyphenyl)-6-oxo-1,2,3,6-tetrahydropyridin-1-yl]-10-methyl-9-oxo-8,16-diazatricyclo[13.3.1.0^2,7]nonadeca-1(18),2,4,6,15(19),16-hexaen-5-yl]carbamate] | < 6.40 | < 4.89 | –
